How the values were obtained:
[1] = stability of aqueous solution of SQ 14225 on standing; type: physicochemical; settings: 1 mg per ml, pH about 8, as little as 30 minutes
[2] = system: ACE from guinea pig or human urine; assay: inhibition of ACE prepared from guinea pig or human urine, [3H]-HipGlyGly substrate; type: biochemical; settings: SQ 14,225 at 0.1 μM
Protocol: B. In certain experiments, as identified, an alternative assay system was employed using [^3 H]-HipGlyGly as substrate as described by Ryan, J. W., et al., Biochem. J. 167 501 (1977).
Fresh urine was ultrafiltered using a membrane (PTGC 142 05, Millipore Corp., Bedford, MA, U.S.A.) with a 10,000 MW retention limit. Typically, 500 ml of urine was ultrafiltered to approx. 15 ml and then the concentrated proteins were washed with water and then applied to a column (2.5×110 cm) of Sephacryl S-200, Trademark, Pharmacia Chemical Co., Uppsala, Sweden, previously equilibrated with 0.05M TrisHCl buffer, pH 8.0, with 0.5M NaCl. Under these conditions, ACE was eluted in two peaks; one, the major peak, was eluted just after the void volume (Ve /Vo =1.21) and the second (up to 20% of the total activity) at Ve /Vo =1.41. Enzyme activity was measured using [^3 H]-HipGlyGly as described in Example 1B. […] The activities were inhibited to a maximum of 84% by antibody to guinea pig lung ACE. The enzyme used herein was that of the first peak to emerge from the Sepacryl column. The enzyme preparation was concentrated about 10-fold by ultrafiltration. In one such experiment, the concentrated urinary protein solution obtained by ultrafiltration contained 2,400 m units of enzyme at 8.0 m units/mg of protein, and peak 1 from the Sephacryl column contained 1,100 m units at 814 m units/mg of protein. […]

[3] = oral; most patients; cited from earlier work

C[C@H](CS)C(=O)N1CCCC1C(=O)O (stereo in doubt) [SQ 14225, D-3-mercapto-2-methylpropanoyl-L-proline]
activity of aqueous solution on standing [1]: substantially less active | inhibition of activities of both ACE peaks [2]: inhibited completely | stability in normal gastric and intestinal environments [3]: sufficiently stable

— patent US4745124A, “Orally effective anti-hypertensive agents” (priority 1983, dated 1988)
